Values of other authors, collected in patent US6531463B1, “Method for producing a fat mixture” (Spice Sciences Oy, priority 1998, dated 2003).

What was measured:
[1] = administered orally
[2] = test system: absorption of cholesterol; conditions: for decrease of the absorption of cholesterol: nine adult patients, 5 days, 500 mg of cholesterol, 1 gram of β-sitosterol or 2 grams of β-sitosteryl oleate
[3] = test system: cholesterol levels, atherogenesis; conditions: added to the feed of cholesterol fed rabbits
cholesterol levels [4] = conditions: added to the feed of cholesterol fed chicken
serum cholesterol = conditions: in vivo
[5] = test system: absorption of cholesterol
cholesterol levels [6] = conditions: preparations studied in 1950's and 1960's

Question: Which results are given for CC[C@H](CC[C@@H](C)[C@H]1CC[C@H]2[C@@H]3CC=C4C[C@@H](O)CC[C@]4(C)[C@H]3CC[C@]12C)C(C)C [β-sitosterol, stigmasta-5-en-3β-ole]?
Answer: proportion absorbed [1]: less than 5%; reduction of the absorption of cholesterol from food ([2]; 1 gram of β-sitosterol, food containing 500 mg of cholesterol): 42%; decrease of the absorption of cholesterol [2]: 42%; atherogenesis [3]: prevented atherogenesis; cholesterol levels [3]: cholesterol levels were lowered; cholesterol levels (cholesterol levels [4]): cholesterol levels were lowered; lowering of the LDL-cholesterol level (serum cholesterol): 19%; lowering of the total serum cholesterol level (serum cholesterol): 10-15%

Question: Which “decrease of the absorption of cholesterol” value [2] does the source give for CCCCCCCC/C=C\CCCCCCCC(=O)O[C@H]1CC[C@@]2(C)C(=CC[C@H]3[C@@H]4CC[C@H]([C@H](C)CC[C@@H](CC)C(C)C)[C@@]4(C)CC[C@@H]32)C1 [β-sitoteryl oleate, β-sitosteryl oleate] here?
Answer: 33%

Question: Which absorption of cholesterol ([5]; female rats (Uchita et al.)) does the source give for sitosterol here?
Answer: inhibits absorption of cholesterol

Question: And the “cholesterol balance in plasma and liver” value ([5]; female rats (Uchita et al.))?
Answer: lowers cholesterol balance in plasma and liver

Question: What about the “inhibition of absorption of cholesterol” value ([5]; rats (Vahouny et al.)) of the same compound?
Answer: 54%

Question: What about the “lowering of cholesterol levels” value (cholesterol levels [6]) of the same compound?
Answer: about 10%
